In US20210330611A1, “THERAPY FOR NEUROLOGICAL DISEASES/DISORDERS” (priority 2020, published 2021):
“And” between values parts separate entries of the source, which are not always exact repeats. Equal values may be shown once. Read-outs that look alike come from different tables or passages of the source.

How the values were obtained:
[1] = test system: fibrin-induced microglia activation; assay: Image-based assay of fibrin-induced microglia activation (HTS and dose response); assay type: cell-based, rat; conditions: for IC50 / inhibition at 10 µM: Rattus norvegicus, Microglia; for inhibition at 10 µM: primary microglia HTS, fibrin stimulation, increased cell size (>800 μm^2) as marker of activation, read-out: Fibrin % inhibition
primary rat microglia [2] = assay: Cell toxicity (dead cells, size <150 μm2) in coated fibrin (cFib) assay; conditions: primary microglia HTS, fibrin stimulation; decreased size (<150 μm^2) as marker of toxicity;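 as to Fibrin % cell toxicity: share of dead cells sized under 150 µm2 at 10 µM in fibrin-stimulated microglia HTS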
in vitro [3] = conditions: rat, Cell Toxicity IC50 (uM) [cFib assay]
primary rat microglia [4] = assay: Cell toxicity (dead cells, size <150 μm2) in LPS assay; conditions: for LPS % cell toxicity: primary microglia HTS, LPS stimulation, decreased size (<150 μm^2) as marker of toxicity; for IC50: read-out: Cell Toxicity IC50 (uM) [LPS assay], LPS assay
[5] = test system: LPS-induced microglia activation; assay: Image-based assay of LPS-induced microglia activation (HTS and dose response); assay type: cell-based, rat; conditions: Rattus norvegicus, Microglia; for inhibition at 10 µM: primary microglia HTS, LPS stimulation, increased cell size (>800 μm^2) as marker of activation, read-out: LPS % inhibition
[6] = test system: fibrin- and LPS-induced microglia activation; assay: cells; assay type: cell-based, rat; conditions: for inhibition at 10 µM: Rattus norvegicus
in vitro [7] = conditions: rat
[8] = 48 h, Table 1, dose response 0.001-20 μM, triplicates, primary rat microglia, 48 h, read-out: Fibrin IC50
[9] = dose response, fibrin-induced microglia activation, read-out: Fibrin IC50
[10] = fibrin-induced microglia activation, dose response, read-out: Fibrin IC50 (uM) (Suppl. Table 7)
[11] = 48 h, Table 1, dose response 0.001-20 μM, triplicates, primary rat microglia, 48 h, read-out: LPS IC50
[12] = LPS-induced microglia activation, dose response, read-out: LPS IC50 (uM) (Suppl. Table 7)
[13] = dose response, LPS-induced microglia activation, read-out: LPS IC50
[14] = HTS of 1907 compounds, quadrant by fibrin and LPS inhibition
[15] = Microglia, HTS hit classification, read-out: Hit
[16] = hit classification in microglia HTS, read-out: Cherry-picked Hit (Suppl. Table 7)
[17] = quadrant by fibrin and LPS inhibition in HTS of 1907 compounds
[18] = Table 3, read-out: Fibrin IC50 (uM) (Suppl. Table 7)
[19] = Table 3, read-out: LPS IC50 (uM) (Suppl. Table 7)
[20] = Microglia, Table 3, read-out: Cherry-picked Hit (Suppl. Table 7)
[21] = listed as Medroxyprogesterone Ac

Row | Compound | IC50 [1, 8] [µM] | IC50 [1, 9] [µM] | IC50 [1, 10] [µM] | inhibition at 10 µM [1] [%] | Fibrin % cell toxicity (primary rat microglia [2]) [%] | IC50 (in vitro [3]; cFib assay) [µM] | LPS % cell toxicity (primary rat microglia [4]) [%] | IC50 [5, 11] [µM] | inhibition at 10 µM ([5]; 48 h) [%] | IC50 [5, 12] [µM] | IC50 [5, 13] [µM] | Quadrant (FIG. 5b) [6, 14] | inhibition at 10 µM [6, 15] [%] | Quadrant (FIG. 5b) ([6]; Table 1, screen at 10 μM) | Quadrant (FIG. 5b) [6, 17] | IC50 (in vitro [7]) [µM] | IC50 [1, 18] [µM] | IC50 (in vitro [3]; Table 3) [µM] | IC50 [5, 19] [µM] | inhibition at 10 µM [6, 20] [%] | further results
1 | CN(C)CCc1c[nH]c2ccc(CS(=O)(=O)N3CCCC3)cc12 [Almotriptan, reference compound] | > 20 | > 20 | > 20 | 101 | 2 | > 20 | 1 | > 20 | 85 | > 20 | > 20 | Q2 | > 50 | Q2 | Q2 | > 20 | – | – | – | – | inhibition at 10 µM [6, 16]: > 50%
2 | CCCCC(=O)O[C@]1(C(=O)CO)CC[C@H]2[C@@H]3CCC4=CC(=O)CC[C@]4(C)[C@H]3[C@@H](O)C[C@@]21C [Hydrocortisone valerate, reference compound] | 0.05 | 0.05 | 0.05 | 95 | 1 | > 20 | 1 | 1 | 73 | 1 | 1 | Q2 | > 50 | Q2 | Q2 | > 20 | 0.05 | > 20 | 1 | > 50 | Fibrin Selectivity [1]: 28; Fibrin Selectivity (LOG10) [1]: 1.45; IC50 (primary rat microglia [4]): > 20 µM; Quadrant (FIG. 5b) ([6]; Table 3, screen at 10 μM): Q2
3 | O=C1C=C2C=C[C@@H]3C[C@@]2(O1)[C@H]1CCCCN31 [Securinine, reference compound] | 2 | 2 | 2 | 104 | 2 | > 20 | 1 | 6 | 106 | 6 | 6 | Q2 | > 50 | Q2 | Q2 | 12 | 2 | > 20 | 6 | > 50 | Fibrin Selectivity [1]: 3; Fibrin Selectivity (LOG10) [1]: 0.40; Quadrant (FIG. 5b) ([6]; Table 3, screen at 10 μM): Q2
4 | CC(=O)O[C@]1(C(C)=O)CC[C@H]2[C@@H]3C[C@H](C)C4=CC(=O)CC[C@]4(C)[C@H]3CC[C@@]21C [Medroxyprogesterone acetate, reference compound] | 0.3 | 0.5 | 0.3 | 72 | 1 | > 20 | 1 | > 20 | 56 | > 20 | > 20 | Q2 | > 50 | Q2 | Q2 | > 20 | 0.3 | > 20 | > 20 | > 50 | IC50 ([1]; Table 6, read-out: Fibrin IC50 (uM) (Suppl. Table 7)): 0.3 µM; Fibrin Selectivity (LOG10) ([1]; fibrin vs LPS, LOG10, Table 6): 1.84 and 1.61; Fibrin Selectivity ([1]; fibrin vs LPS, Table 6): 70 and 41; Fibrin Selectivity [1, 21]: 70 and 41; Fibrin Selectivity (LOG10) [1, 21]: 1.84 and 1.61; Fibrin Selectivity ([1]; listed as Medroxyprogesterone Acetate): 70 and 41; IC50 (in vitro [3]; cFib assay, Table 6): > 20 µM; IC50 (primary rat microglia [4]): > 20 µM; IC50 (primary rat microglia [4]; Table 6): > 20 µM; IC50 ([5]; Table 6, read-out: LPS IC50 (uM) (Suppl. Table 7)): > 20 µM; Quadrant (FIG. 5b) ([6]; Table 3, screen at 10 μM): Q2; Quadrant (FIG. 5b) ([6]; microglia HTS, Table 6): Q2
5 | CC(C)C(=O)c1c(C(C)C)nn2ccccc12 [Ibudilast, reference compound] | > 20 | > 20 | > 20 | 75 | 1 | > 20 | 1 | > 20 | 57 | > 20 | > 20 | Q2 | > 50 | Q2 | Q2 | > 20 | – | – | – | – | inhibition at 10 µM [6, 16]: > 50%
